Measurements as given in PMC3843973 (Journal of medicinal chemistry, 2013).
Where two headings read alike, the source gives them in different places.

How the values were obtained:
rat α3β4 nAChR = rat α3β4 nAChR (Rattus norvegicus, UniProt P04757+P12392); settings: cited from earlier work
human α4β2-nAChRs = human α4β2-nAChRs (Homo sapiens, UniProt P17787+P43681); assay type: cell-based; settings: mixture of HS and LS α4β2-nAChRs; 10 min preincubation
BALB/cJ male mice = settings: mouse
[1] = chemical stability on storage; assay type: physicochemical; settings: stored at room temperature for several months
[2] = system: strains TA98, TA100, TA1535, and TA1537; test: bacteria reversion mutation assay; settings: strain TA1537 in the presence of S9 fraction, 50 and 100 μM
Caco-2 cells = test: bidirectional Caco-2 cell permeability assay; assay type: in vitro ADME; settings: Caco-2 bidirectional
[3] = bidirectional Caco-2 cell permeability assay; assay type: in vitro ADME; settings: human, Caco-2, pH 7.4
rat α2β4 nAChR = rat α2β4 nAChR (Rattus norvegicus, UniProt P12389+P12392); settings: read-out: Ki α2β4; cited from earlier work
Chain of rat α2β4 nAChR (P12389 28-511): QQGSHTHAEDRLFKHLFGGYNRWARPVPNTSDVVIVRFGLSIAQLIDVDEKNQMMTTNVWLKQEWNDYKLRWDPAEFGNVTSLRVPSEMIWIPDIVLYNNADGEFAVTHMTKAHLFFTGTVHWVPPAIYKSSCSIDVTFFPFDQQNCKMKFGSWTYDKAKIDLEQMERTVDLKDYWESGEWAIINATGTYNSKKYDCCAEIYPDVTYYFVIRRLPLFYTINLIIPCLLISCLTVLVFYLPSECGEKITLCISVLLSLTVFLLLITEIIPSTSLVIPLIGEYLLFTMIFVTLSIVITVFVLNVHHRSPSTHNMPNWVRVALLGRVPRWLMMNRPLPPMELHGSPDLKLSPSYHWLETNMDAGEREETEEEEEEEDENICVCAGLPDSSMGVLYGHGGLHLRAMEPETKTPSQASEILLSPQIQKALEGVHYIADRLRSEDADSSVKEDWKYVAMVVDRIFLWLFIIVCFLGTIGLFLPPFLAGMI
Chain of rat α2β4 nAChR (P12392 21-495): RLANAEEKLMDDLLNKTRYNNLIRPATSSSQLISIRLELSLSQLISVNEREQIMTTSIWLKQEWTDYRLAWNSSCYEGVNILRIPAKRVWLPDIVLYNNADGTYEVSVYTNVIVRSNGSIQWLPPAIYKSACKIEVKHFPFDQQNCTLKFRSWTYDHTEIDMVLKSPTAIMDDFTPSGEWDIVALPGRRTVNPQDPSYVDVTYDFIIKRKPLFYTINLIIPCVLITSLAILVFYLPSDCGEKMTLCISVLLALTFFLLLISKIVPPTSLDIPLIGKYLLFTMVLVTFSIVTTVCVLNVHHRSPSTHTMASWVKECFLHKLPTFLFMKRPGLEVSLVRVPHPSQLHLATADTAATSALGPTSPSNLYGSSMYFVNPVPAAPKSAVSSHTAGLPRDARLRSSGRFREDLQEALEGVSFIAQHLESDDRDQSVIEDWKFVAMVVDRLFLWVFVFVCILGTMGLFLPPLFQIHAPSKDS

rat α2β2 nAChR = rat α2β2 nAChR (Rattus norvegicus, UniProt P12389+P12390); settings: read-out: Ki α2β2; cited from earlier work
Chain of rat α2β2 nAChR (P12389 28-511): as the sequence (P12389 28-511) above
Chain of rat α2β2 nAChR (P12390 25-500): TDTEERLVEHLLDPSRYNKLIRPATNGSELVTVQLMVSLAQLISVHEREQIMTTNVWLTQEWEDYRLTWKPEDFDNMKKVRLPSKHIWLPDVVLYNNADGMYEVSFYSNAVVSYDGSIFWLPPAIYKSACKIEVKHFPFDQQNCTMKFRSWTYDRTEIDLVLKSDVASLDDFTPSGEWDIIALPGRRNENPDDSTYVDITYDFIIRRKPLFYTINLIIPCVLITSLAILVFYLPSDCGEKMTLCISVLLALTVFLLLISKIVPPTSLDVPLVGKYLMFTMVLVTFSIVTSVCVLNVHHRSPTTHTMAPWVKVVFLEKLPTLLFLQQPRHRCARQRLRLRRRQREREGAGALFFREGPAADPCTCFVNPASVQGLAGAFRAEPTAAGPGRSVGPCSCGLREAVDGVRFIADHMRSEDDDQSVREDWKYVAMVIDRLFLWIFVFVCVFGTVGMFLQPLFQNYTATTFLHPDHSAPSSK

rat α4β2 nAChR = rat α4β2 nAChR (Rattus norvegicus, UniProt P09483+P12390); settings: read-out: Ki α4β2; cited from earlier work
Chain of rat α4β2 nAChR (P12390 25-500): as above
Chain of rat α4β2 nAChR (P09483 31-630): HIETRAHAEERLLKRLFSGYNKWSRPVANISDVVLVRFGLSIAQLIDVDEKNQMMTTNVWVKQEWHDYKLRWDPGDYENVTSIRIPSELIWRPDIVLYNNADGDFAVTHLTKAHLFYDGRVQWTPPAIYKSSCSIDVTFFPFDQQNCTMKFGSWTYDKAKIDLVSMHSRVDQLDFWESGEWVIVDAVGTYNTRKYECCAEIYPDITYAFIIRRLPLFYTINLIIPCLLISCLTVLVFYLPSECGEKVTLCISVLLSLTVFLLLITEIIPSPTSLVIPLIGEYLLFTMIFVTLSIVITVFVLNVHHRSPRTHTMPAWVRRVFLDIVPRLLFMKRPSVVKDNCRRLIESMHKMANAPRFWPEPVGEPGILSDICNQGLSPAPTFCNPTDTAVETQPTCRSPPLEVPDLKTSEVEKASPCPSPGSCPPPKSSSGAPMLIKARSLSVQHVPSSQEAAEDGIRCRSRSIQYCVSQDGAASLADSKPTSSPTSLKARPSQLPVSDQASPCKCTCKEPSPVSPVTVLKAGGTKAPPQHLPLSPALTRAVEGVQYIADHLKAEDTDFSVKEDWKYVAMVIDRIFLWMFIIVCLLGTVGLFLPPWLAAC

rat α4β4 nAChR = rat α4β4 nAChR (Rattus norvegicus, UniProt P09483+P12392); settings: read-out: Ki α4β4; cited from earlier work
Chain of rat α4β4 nAChR (P12392 21-495): as the sequence (P12392 21-495) above
Chain of rat α4β4 nAChR (P09483 31-630): as the sequence (P09483 31-630) above

rat α3β2 nAChR = rat α3β2 nAChR (Rattus norvegicus, UniProt P04757+P12390); settings: read-out: Ki α3β2; cited from earlier work
Chain of rat α3β2 nAChR (P12390 25-500): as the sequence (P12390 25-500) above
Chain of rat α3β2 nAChR (P04757 26-499): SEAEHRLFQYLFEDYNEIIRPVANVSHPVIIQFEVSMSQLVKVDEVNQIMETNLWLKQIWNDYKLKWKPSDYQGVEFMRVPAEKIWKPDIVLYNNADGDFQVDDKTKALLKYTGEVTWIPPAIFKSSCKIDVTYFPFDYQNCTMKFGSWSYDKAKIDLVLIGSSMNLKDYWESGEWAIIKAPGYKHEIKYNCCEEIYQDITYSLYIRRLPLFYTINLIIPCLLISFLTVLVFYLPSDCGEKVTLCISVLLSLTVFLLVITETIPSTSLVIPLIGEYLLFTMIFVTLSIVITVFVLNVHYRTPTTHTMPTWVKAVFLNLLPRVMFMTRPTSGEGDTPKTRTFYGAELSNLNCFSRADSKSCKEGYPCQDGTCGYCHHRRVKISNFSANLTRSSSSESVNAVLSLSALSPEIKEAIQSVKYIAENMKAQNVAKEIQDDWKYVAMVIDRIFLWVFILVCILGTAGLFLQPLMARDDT

[4] = molecular target: α4β2*-nAChR, prepared from rat forebrain (Rattus norvegicus, UniProt P09483+P12390); settings: read-out: Ki α4β2*; cited from earlier work
Chain of α4β2*-nAChR, prepared from rat forebrain (P09483 31-630): as the sequence (P09483 31-630) above
Chain of α4β2*-nAChR, prepared from rat forebrain (P12390 25-500): as the sequence (P12390 25-500) above

Chain of rat α3β4 nAChR (P12392 21-495): as the sequence (P12392 21-495) above
Chain of rat α3β4 nAChR (P04757 26-499): as the sequence (P04757 26-499) above
Chain of human α4β2-nAChRs (P43681 29-627 limits assumed): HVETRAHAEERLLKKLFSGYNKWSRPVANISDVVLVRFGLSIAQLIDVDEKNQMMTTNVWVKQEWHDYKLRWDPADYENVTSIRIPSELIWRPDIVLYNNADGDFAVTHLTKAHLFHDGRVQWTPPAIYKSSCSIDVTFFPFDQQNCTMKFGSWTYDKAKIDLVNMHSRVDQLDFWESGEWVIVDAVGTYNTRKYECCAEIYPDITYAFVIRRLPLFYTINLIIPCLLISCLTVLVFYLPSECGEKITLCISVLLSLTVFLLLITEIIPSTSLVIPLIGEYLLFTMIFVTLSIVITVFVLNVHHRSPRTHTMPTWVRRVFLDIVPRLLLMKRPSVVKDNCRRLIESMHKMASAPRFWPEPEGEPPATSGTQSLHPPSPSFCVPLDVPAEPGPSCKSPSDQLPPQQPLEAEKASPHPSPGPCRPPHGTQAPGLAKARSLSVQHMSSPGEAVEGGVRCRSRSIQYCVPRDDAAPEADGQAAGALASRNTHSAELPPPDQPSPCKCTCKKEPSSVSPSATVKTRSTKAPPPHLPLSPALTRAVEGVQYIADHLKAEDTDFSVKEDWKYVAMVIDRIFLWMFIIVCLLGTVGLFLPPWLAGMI
Chain of human α4β2-nAChRs (P17787 26-502): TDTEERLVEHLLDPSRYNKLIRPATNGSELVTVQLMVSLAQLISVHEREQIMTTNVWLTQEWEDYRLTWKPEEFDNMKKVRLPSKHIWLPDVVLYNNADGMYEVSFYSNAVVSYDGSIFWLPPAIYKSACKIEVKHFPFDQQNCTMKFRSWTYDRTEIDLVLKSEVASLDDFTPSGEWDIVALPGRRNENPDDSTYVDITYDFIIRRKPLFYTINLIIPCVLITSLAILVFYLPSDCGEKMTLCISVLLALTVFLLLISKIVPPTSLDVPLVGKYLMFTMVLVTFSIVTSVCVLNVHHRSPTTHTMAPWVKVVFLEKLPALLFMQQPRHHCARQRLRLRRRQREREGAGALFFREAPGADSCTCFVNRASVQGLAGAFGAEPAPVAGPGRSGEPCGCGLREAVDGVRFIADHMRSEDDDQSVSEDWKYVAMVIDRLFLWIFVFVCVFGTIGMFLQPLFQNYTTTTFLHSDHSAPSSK

COCC[C@H]1C[C@@H]1c1cncc(OC[C@@H]2CCN2)c1 [Compound 4]
Ki α3β4 (rat α3β4 nAChR): NA (not active, defined as < 50% binding in the primary assay at 10 μM) | Inactivation α4β2 Efficacy (human α4β2-nAChRs): 71 ± 5.5%

COCC[C@H]1C[C@@H]1c1cncc(OC[C@@H]2CCCN2)c1.O=C(O)C(F)(F)F [Compound 24, 3-[(2(S)-Pyrrolidinyl)methoxy]-5-[(1S,2R)-2-(2-methoxyethyl)cyclopropyl]pyridine Trifluoroacetate]
effect in the forced swim test (BALB/cJ male mice; in vivo): no significant effects

COCC[C@H]1C[C@@H]1c1cncc(OC[C@@H]2CCCN2C)c1.O=C(O)C(F)(F)F [Compound 26, 3-[(1-Methyl-2(S)-pyrrolidinyl)methoxy]-5-[(1S,2R)-2-(2-methoxyethyl)cyclopropyl]pyridine Trifluoroacetate]
chemical stability [1]: little or no sign of decomposition | minimal dose with significant reduction in immobility (BALB/cJ male mice; in vivo, ip): 1 mg/kg | minimal dose with significant reduction in immobility (BALB/cJ male mice; in vivo, po): 1 mg/kg | Ames test mutagenic potential [2]: positive significance | permeability class (Caco-2 cells): high permeability | efflux ratio [3]: 0.2

COCC[C@H]1C[C@@H]1c1cncc(OC[C@H]2CCNC2)c1.O=C(O)C(F)(F)F [Compound 30, 3-[(3(S)-Pyrrolidinyl)methoxy]-5-[(1S,2R)-2-(2-methoxyethyl)cyclopropyl]pyridine Trifluoroacetate]
abnormal behavioral effects (BALB/cJ male mice; intraperitoneal, 5 mg/kg): sedation and tremor

OCCCCC#Cc1cncc(OC[C@@H]2CCN2)c1 [saz-A, sazetidine-A]
Ki (rat α3β4 nAChR; read-out: Ki α3β4): 1900 nM | Ki (rat α2β4 nAChR): 210 nM | Ki (rat α2β2 nAChR): 0.087 nM | Ki (rat α4β2 nAChR): 0.062 nM | Ki (rat α4β4 nAChR): 52 nM | Ki (rat α3β2 nAChR): 0.38 nM | Ki [4]: 0.17 nM

CN[C@H]1CC[C@@H](c2ccc(Cl)c(Cl)c2)c2ccccc21 [sertraline, reference compound]
effect on immobility (positive control) (BALB/cJ male mice; 20 mg/kg): expected decrease in immobility
